Reference: US10947511B2, “Differentiation of human embryonic stem cells into pancreatic endocrine cells using thyroid hormone and/or alk5, an inhibitor of tgf-beta type 1 receptor” (Janssen Biotech, Inc., priority 2012, dated 2021)
Entries after “also recorded” stand apart in the source; their conditions may differ.

Experiments:
[1] = test system: human embryonic stem cell line H1; assay: Real-time PCR of marker genes in H1 cells differentiated as in Example 2, T3 added at Stages 4 through 6; type: cell-based
Protocol: (§1) All primers were purchased from Applied Biosystems.
(§2) Cultures were differentiated into cells expressing markers characteristic of pancreatic endoderm/endocrine precursor cells by the protocol outlined below. • a. […] SD208 is 2-(5-Chloro-2-fluorophenyl)pteridin-4-yl]pyridin-4-yl-amine) having the structure of formula I, and disclosed in Molecular Pharmacology 2007, 72:152-161. SD208 is a 2,4-disubstituted pteridine, ATP-competitive inhibitor of the TGF-βR I kinase.
(§3) In some cultures, 1 μM T3 (T6397, Sigma, MO) was added at Stages 4 through 6. At the end of Stages 4 through 6, the control and treated cultures were analyzed by FACS and immunostaining. Furthermore, mRNA was collected for the control and treated cultures at Stages 2 through 6.

[2] = test system: human embryonic stem cell line H1; assay: Immunostaining for HB9 and NKX6.1 at Stage 6, control vs T3 treated cultures (Example 2); type: cell-based
Protocol: as §1, §2, §3

[3] = T3 vs T4; cited from earlier work
[4] = test system: human embryonic stem cell line H1; assay: Immunostaining for NKX6.1 and HB9 at Stage 6 day 6, T3 dose response (Example 4); type: cell-based; settings: 0-1000 nM T3 at Stages 5 and 6, dose dependent
Description: as §1
Forty-eight hours post-seeding, cultures were washed in incomplete PBS (phosphate buffered saline without Mg or Ca). Cultures were differentiated into cells expressing markers characteristic of pancreatic endoderm/endocrine precursor cells by the protocol outlined below. • a.

[5] = in the blood; cited from earlier work
[6] = 1 μM T3 added at Stages 4 through 6, real-time PCR
[7] = 1 μM T3 added at Stages 4 through 6, real-time PCR vs control
[8] = 1 μM T3 addition, real-time PCR

| SMILES | insulin expression ([1]; 1 μM T3 added at Stages 4 through 6, at Stage 5, real-time PCR) | NKX2.2 expression [1, 6] | NKX6.1 expression [1, 6] | PDX1 expression [1, 6] | ghrelin expression [1, 7] | glucagon expression [1, 7] | somatostatin expression [1, 7] | CDX2 (intestine marker) expression [1, 8] | SOX2 (stomach marker) expression [1, 8] | albumin (liver marker) expression [1, 8] | number of HB9 positive cells ([2]; Stage 6, T3 treated group vs control) | number of NKX6.1 positive cells showing expression of HB9 ([2]; T3 treated cultures) | potency relative to T4 [3] | number of HB9 positive cells in the NKX6.1 positive pancreatic endoderm precursor cells [4] | half-life relative to T3 [5] |
| --- | --- | --- | --- | --- | --- | --- | --- | --- | --- | --- | --- | --- | --- | --- | --- |
| N[C@@H](Cc1cc(I)c(Oc2ccc(O)c(I)c2)c(I)c1)C(=O)O [T3, triiodothyronine] | moderately increasing | significantly decreased | apparently not affecting | apparently not affecting | significantly down regulated | significantly down regulated | significantly down regulated | not affecting | suppressed | suppressed | increases; also recorded: significant increase | increased number | three to four times more potent than T4 | significantly enhanced |  |
| N[C@@H](Cc1cc(I)c(Oc2cc(I)c(O)c(I)c2)c(I)c1)C(=O)O [T4, thyroxine] |  |  |  |  |  |  |  |  |  |  |  |  |  |  | longer half-life than T3 |
